Measured values as given in the supplement of paper PMC10307832.

compound: C[C@@H](C(=O)N[C@@H](C1CCCCC1)C(=O)N2CCC[C@H]2C(=O)N[C@@H]3[C@@H](CC4=CC=CC=C34)OCC#CC#CCO[C@@H]5CC6=CC=CC=C6[C@@H]5NC(=O)[C@@H]7CCCN7C(=O)[C@H](C8CCCCC8)NC(=O)[C@H](C)NC)NC [AZD5582] + CC1(C)CCC(c2ccc(Cl)cc2)=C(CN2CCN(c3ccc(C(=O)NS(=O)(=O)c4ccc(N[C@H](CCN5CCOCC5)CSc5ccccc5)c(S(=O)(=O)C(F)(F)F)c4)cc3)CC2)C1 [Navitoclax] (partner 0.5 µM); experiment: relative viability (nuclei count vs DMSO), 5 days (fraction); higher = more cells survive; conditions: first compound 0.01581 µM
Outline: (§1)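 Relative viability equals treated-well nuclei counts divided by vehicle-well nuclei counts. Counts came from 4× images of lung cancer cell lines grown in 1536-well plates for 5 days after pin-tool dosing on the day after seeding. Dosing used one drug alone or a fixed anchor-drug dose plus five library-drug doses (not always all listed) in √10 steps, and values are medians of duplicate plates.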

First: NCI-H647
Second: NCI-H838
The relative viability of the first is lower: 0.919 for the first, 1.05 for the second.

Going from NCI-H1355 to NCI-H1437, the relative viability rises from 0.954 to 1.05.

Going from NCI-H1650 to NCI-H1651, the relative viability falls from 1.23 to 1.21.

First: NCI-H1666
Second: NCI-H1734
The relative viability of the first is higher: 1.11 for the first, 0.886 for the second.

First: NCI-H1755
Second: NCI-H1793
The relative viability of the first is higher: 1.01 for the first, 0.476 for the second.

Going from NCI-H1915 to NCI-H1944, the relative viability rises from 0.793 to 1.08.

Going from NCI-H1975 to NCI-H1993, the relative viability falls from 1.18 to 0.876.

Compared with NCI-H2009, NCI-H2023 is lower in relative viability: 1.15 for the first, 1.01 for the second.

Going from NCI-H2085 to NCI-H2087, the relative viability falls from 1.12 to 1.05.

Compared with NCI-H2126, NCI-H2170 is lower in relative viability: 0.834 for the first, 0.624 for the second.

same assay, conditions: first compound 0.05 µM

Going from LC-2-ad to LCLC-97TM1, the relative viability falls from 0.384 to 0.32.

Compared with LK-2, LOU-NH91 is lower in relative viability: 1.21 for the first, 0.678 for the second.

First: LU99A
Second: LXF-289
The relative viability of the first is higher: 0.976 for the first, 0.934 for the second.

Compared with NCI-H23, NCI-H322M is higher in relative viability: 0.778 for the first, 1.4 for the second.

Going from NCI-H441 to NCI-H460, the relative viability rises from 0.518 to 1.03.

First: NCI-H520
Second: NCI-H596
The relative viability of the first is higher: 1.15 for the first, 0.332 for the second.

Compared with NCI-H647, NCI-H838 is lower in relative viability: 1.27 for the first, 1.18 for the second.

First: NCI-H1355
Second: NCI-H1395
The relative viability of the first is lower: 1.01 for the first, 1.49 for the second.

Going from NCI-H1437 to NCI-H1650, the relative viability rises from 1.04 to 1.17.

First: NCI-H1651
Second: NCI-H1666
The relative viability of the first is higher: 1.14 for the first, 0.837 for the second.

Compared with NCI-H1734, NCI-H1755 is higher in relative viability: 0.954 for the first, 1 for the second.

Going from NCI-H1793 to NCI-H1915, the relative viability rises from 0.465 to 0.746.

Compared with NCI-H1944, NCI-H1975 is higher in relative viability: 1.11 for the first, 1.2 for the second.

First: NCI-H1993
Second: NCI-H2009
The relative viability of the first is lower: 0.922 for the first, 1.18 for the second.

First: NCI-H2023
Second: NCI-H2085
The relative viability of the first is lower: 0.956 for the first, 1.01 for the second.

Compared with NCI-H2087, NCI-H2126 is lower in relative viability: 1.05 for the first, 0.706 for the second.

NCI-H2170 was tested, and the relative viability was 0.758.

compound: Cn1nnc2c(C(N)=O)ncn2c1=O [Temozolomide] + CC1(C)CCC(c2ccc(Cl)cc2)=C(CN2CCN(c3ccc(C(=O)NS(=O)(=O)c4ccc(N[C@H](CCN5CCOCC5)CSc5ccccc5)c(S(=O)(=O)C(F)(F)F)c4)cc3)CC2)C1 [Navitoclax] (partner 0.5 µM); experiment: as above; conditions: first compound 0.2 µM
Outline: as §1

Compared with LC-2-ad, LCLC-97TM1 is lower in relative viability: 0.598 for the first, 0.546 for the second.

Compared with LK-2, LOU-NH91 is lower in relative viability: 0.756 for the first, 0.395 for the second.

Going from LU99A to LXF-289, the relative viability rises from 0.894 to 0.98.

Going from NCI-H23 to NCI-H441, the relative viability falls from 1.04 to 0.692.

Going from NCI-H460 to NCI-H520, the relative viability falls from 1.28 to 1.13.

Compared with NCI-H596, NCI-H647 is higher in relative viability: 0.9 for the first, 1.16 for the second.

Going from NCI-H838 to NCI-H1355, the relative viability falls from 1.13 to 0.837.

Going from NCI-H1395 to NCI-H1437, the relative viability falls from 1.26 to 1.15.

Compared with NCI-H1650, NCI-H1651 is lower in relative viability: 1.39 for the first, 1.15 for the second.

Going from NCI-H1666 to NCI-H1734, the relative viability falls from 0.831 to 0.803.

First: NCI-H1755
Second: NCI-H1915
The relative viability of the first is higher: 1.07 for the first, 0.797 for the second.

Going from NCI-H1944 to NCI-H1975, the relative viability rises from 0.855 to 1.2.
